Reference: paper PMC10937238 (Saudi Pharmaceutical Journal : SPJ, 2024)

How the values were obtained:
MERS-CoV PLpro [1] = biological target: T1, MERS-CoV PLpro (Human betacoronavirus 2c EMC/2012, UniProt K0BWD0); assay type: binding
MERS-CoV PLpro [2] = biological target: T1, MERS-CoV PLpro; test: biochemical; assay type: binding; conditions: read-out: SA (111.5 μM)
MERS-CoV PLpro [3] = biological target: T1, MERS-CoV PLpro; test: biochemical

Row | SMILES | Indomethacin (279.5 μM) (MERS-CoV PLpro [1]) | ΔTm at 111.5 µM (MERS-CoV PLpro [2]) | IC50 (MERS-CoV PLpro [3])
1 | COc1ccc2c(c1)c(CC(=O)O)c(C)n2C(=O)c1ccc(Cl)cc1 [Indomethacin] | 1.44 °C |  | 
2 | COc1cc(/C=C/C(=O)O)cc(OC)c1O [sinapic acid] |  | 18.4 °C | 68.6 µM
